Source: PMC6268235, “A New Butanolide Compound from the Aerial Part of Lindera akoensis with Anti-inflammatory Activity” (Molecules, 2012)

How the values were obtained:
[1] = system: LPS-stimulated production of nitrite in RAW264.7 cell; experiment: Inhibition of LPS-stimulated nitrite (NO) production, Griess reaction; format: cell-based, murine; conditions: for IC50: Mus musculus, RAW264.7, RAW 264.7 cells, LPS 100 ng/mL, 24 h, Griess reaction, read-out: IC50 (decrease nitrite of LPS-stimulated production)
Description: NO, produced from L-arginine by NO synthase, has various biological actions, e.g., as a defense and regulatory molecule for homeostatic equilibrium. However, in pathophysiologic conditions, such as inflammation, there is an increased production of NO by inducible NO synthase (iNOS). Macrophages have been expected to be an origin of inflammation, because they contain various chemical mediators that may be responsible for several inflammatory stages. The inhibitory activity toward NO production, induced by lipopolysaccharides (LPS), by murine macrophage-derived RAW264.7 cells was assayed.
(§1) A murine macrophage cell line RAW264.7 (BCRC No. 60001) was purchased from the Bioresources Collection and Research Center (BCRC, Hsinchu, Taiwan) of the Food Industry Research and Development Institute (Hsinchu, Taiwan). Cells were cultured in plastic dishes containing Dulbecco’s Modified Eagle Medium (DMEM, Sigma, St. Louis, MO, USA) supplemented with 10% fetal bovine serum (FBS, Sigma) in a CO2 incubator (5% CO2 in air) at 37 °C and subcultured every 3 days at a dilution of 1:5 using 0.05% trypsin-0.02% EDTA in Ca^2+-, Mg^2+-free phosphate-buffered saline (DPBS).
NO production was indirectly assessed by measuring the nitrite levels in the cultured media and serum determined by a colorimetric method based on the Griess reaction. The cells were incubated with butanolides (0, 3.125, 6.25, 12.5, 25 and 50 μg/mL) in the presence of LPS (100 ng/mL) at 37 °C for 24 h. Then, cells were dispensed into 96-well plates, and 100 μL of each supernatant was mixed with the same volume of Griess reagent (1% sulfanilamide, 0.1% naphthylethylenediamine dihydrochloride and 5% phosphoric acid) and incubated at room temperature for 10 min, the absorbance was measured at 540 nm with a Micro-Reader (Molecular Devices). Serum samples were diluted four times with distilled water and deproteinized by adding 1/20 volume of zinc sulfate (300 g/L) to a final concentration of 15 g/L. After centrifugation at 10,000 × g for 5 min at room temperature, 100 μL supernatant was applied to a microtiter plate well, followed by 100 μL of Griess reagent. After 10 min of color development at room temperature, the absorbance was measured at 540 nm with a Micro-Reader. By using sodium nitrite to generate a standard curve, the concentration of nitrite was measured form absorbance at 540 nm.
IC50 values were estimated using a non-linear regression algorithm (Sigma Plot 8.0; SPSS Inc. Chicago, IL, USA). Statistical evaluation was carried out by one-way analysis of variance (ANOVA followed by Scheffe’s multiple range tests).

[2] = system: RAW264.7 cells; experiment: Cell viability (MTT) in the presence of LPS; format: cell-based; conditions: RAW 264.7 cells, 100 ng/mL LPS, 24 h
Experimental: as §1
Cells (2 × 10^5) were cultured in 96-well plate containing DMEM supplemented with 10% FBS for 1 day to become nearly confluent. Then cells were cultured with compounds 1–5 in the presence of 100 ng/mL LPS (lipopolysaccharide) for 24 h. After that, the cells were washed twice with DPBS and incubated with 100 μL of 0.5 mg/mL MTT for 2 h at 37 °C testing for cell viability. The medium was then discarded and 100 μL dimethyl sulfoxide (DMSO) was added. After 30-min incubation, absorbance at 570 nm was read using a microplate reader (Molecular Devices, Sunnyvale, CA, USA).

Row | SMILES | IC50 [1] [µM] | LD50 (cell viability) [2] [µM] | anti-inflammatory activity (in words) ([1]; RAW264.7 cells, LPS-stimulated nitrite production)
1 | C=CCCCCCCCCC/C=C1\C(=O)OC(C)[C@@H]1O (stereo partly drawn) [Compound 3, (3Z,4α,5β)-3-(dodec-11-enylidene)-4-hydroxy-5-methylbutalactone] | 2.4 | 49.3 | 
2 | C=C1OC(=O)/C(=C/CCCCCCCCCCC)[C@H]1O [Compound 5, dihydroisoobtusilactone] | 97.9 | >178.6 | no significant active
3 | CCCCCCCCCCC=CC1C(=O)OC(C)C1O (stereo not drawn) [Compound 1, 3β-((E)-dodec-1-enyl)-4β-hydroxy-5β-methyldihydrofuran-2-one] | 44.3 | 72.3 | 
4 | C=CCCCCCCCCC/C=C1/C(=O)OC(C)[C@@H]1O (stereo partly drawn) [Compound 4, (3E,4α,5β)-3-(dodec-11-enylidene)-4-hydroxy-5-methylbutalactone] | 1.4 | 67.1 | 
5 | CCCCCCCCCCCC/C=C/C1=CC(C)OC1=O (centres unmarked) [Compound 2, Akolactone A] | 180 | >211.9 | 
